CC1(C)C2CCC1(CS(=O)(=O)O)C(=O)C2 (stereo not drawn)
solubility (mole fraction)
Settings	in acetyl acetate	in methyl acetate
305.7 K	0.099	0.0236
310.6 K	0.122	0.0278
313.7 K	–	0.0316
315.1 K	0.134	0.0339
317.4 K	0.15	–
320.1 K	–	0.0409
321.4 K	0.161	0.039
324.9 K	0.173	0.0459
328.9 K	0.179	–
329.1 K	–	0.0546
331.7 K	0.181	–
334.6 K	–	0.0726
339.1 K	–	0.0906

Source: BigSolDB 2.1
